The nature of the test: Case study 1, inflammatory bowel disease (ulcerative colitis). The class given is in vivo, human. The settings on record: same patient, used previously. An excerpt:
A patient with diagnosed ulcerative colitis (one of 2 major forms of IBD) is cited as a case study on the effects of the GOS product, prepared according to Example 1 The patient had suffered from ulcerative colitis for 5 years and was free of medication prior to, and during, the test period. […] The patient had difficulty in digesting foods, was on a standard diet, suffered from nausea, diarrhoea and abdominal pain. The latter was left side large intestine, which correlated with the diagnosis of colitis based inflammation of the descending colon. A total daily GOS dose of 7 g/d (in 2 separate doses) was ingested. Within 4 days of intake, symptoms began to improve. The patient was better able to digest their diet, gut pains began to recede and nausea was reduced. […] The only change to the diet was the addition of GOS. Six weeks later, this effect has been maintained.

As to `O=C(O)c1cc(/N=N/c2ccc(S(=O)(=O)Nc3ccccn3)cc2)ccc1O` [sulphasalazine], the “effect of earlier treatment on ulcerative colitis” value is given as “no positive effect”.

The values are drawn from patent publication US7883874B2, “Galactooligosaccharide composition and the preparation thereof” (Clasado Inc., priority 2003, dated 2011).
